From PubChem BioAssay AID1963969 (Molecular Pharmacology Branch, DTP, NCI, 2024)
Several values for one entry are separate records, joined by “and”; a condition that tells them apart may be missing. Identical values can stand only once. Blank lines part the entries; values can stand above or below the molecule they belong to.

System: 817829-284-R-J1-PDC multi-cell spheroid viability
Experiment: Anticancer human tumor 817829-284-R-J1-PDC patient-derived colon adenocarcinoma cell line growth inhibition [PI3K]
Conditions: for viability, T/C: stronger effect = lower value
In short: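 Agents were dosed from a top concentration near clinical Cmax (otherwise 10 microM) in half-log decrements, alone or combined with PI3K inhibitors. The spheroids contain tumor cells plus endothelial (HUVEC) and MSC stroma; viability is measured.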
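Note: spheroids exposed to agents for seven days before readout.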
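Throughout, for viability, T/C: percent of vehicle DMSO control viability which is 100%.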

IC50 (curve of first compound, second compound 0.00316 µM): > 100 nM
IC50 (curve of first compound, second compound 0.01 µM): 75 nM
IC50 (curve of first compound, second compound 0.0316 µM): 10 nM
IC50 (curve of first compound, second compound 0.1 µM): 47.7 nM
IC50 (curve of first compound, second compound 0.316 µM): 12.1 nM
IC50 (curve of first compound, second compound 1 µM): < 0.316 nM
SMILES: Cn1ncnc1[C@H]1c2n[nH]c(=O)c3cc(F)cc(c23)N[C@@H]1c1ccc(F)cc1 + CC(Nc1ccc2c(c1)OCCn1cc(N3C(=O)OCC3C(F)F)nc1-2)C(N)=O
viability, T/C (second compound 0.00316 µM, first compound 0.000316 µM): 95.4%
viability, T/C (second compound 0.00316 µM, first compound 0.001 µM): 58.2%
viability, T/C (second compound 0.00316 µM, first compound 0.00316 µM): 104%
viability, T/C (second compound 0.00316 µM, first compound 0.01 µM): 35%
viability, T/C (second compound 0.00316 µM, first compound 0.0316 µM): 71.1%
viability, T/C (second compound 0.00316 µM, first compound 0.1 µM): 53%
viability, T/C (second compound 0.01 µM, first compound 0.000316 µM): 75.1%
viability, T/C (second compound 0.01 µM, first compound 0.001 µM): 66%
viability, T/C (second compound 0.01 µM, first compound 0.00316 µM): 75%
viability, T/C (second compound 0.01 µM, first compound 0.01 µM): 68.3%
viability, T/C (second compound 0.01 µM, first compound 0.0316 µM): 70.2%
viability, T/C (second compound 0.01 µM, first compound 0.1 µM): 43.3%
viability, T/C (second compound 0.0316 µM, first compound 0.000316 µM): 81.7%
viability, T/C (second compound 0.0316 µM, first compound 0.001 µM): 101%
viability, T/C (second compound 0.0316 µM, first compound 0.00316 µM): 46.9%
viability, T/C (second compound 0.0316 µM, first compound 0.01 µM): 65%
viability, T/C (second compound 0.0316 µM, first compound 0.0316 µM): 53.5%
viability, T/C (second compound 0.0316 µM, first compound 0.1 µM): 43.6%
viability, T/C (second compound 0.1 µM, first compound 0.000316 µM): 65.6%
viability, T/C (second compound 0.1 µM, first compound 0.001 µM): 52.2%
viability, T/C (second compound 0.1 µM, first compound 0.00316 µM): 60.3%
viability, T/C (second compound 0.1 µM, first compound 0.01 µM): 70.9%
viability, T/C (second compound 0.1 µM, first compound 0.0316 µM): 43%
viability, T/C (second compound 0.1 µM, first compound 0.1 µM): 46.6%
viability, T/C (second compound 0.316 µM, first compound 0.000316 µM): 40.1%
viability, T/C (second compound 0.316 µM, first compound 0.001 µM): 65.8%
viability, T/C (second compound 0.316 µM, first compound 0.00316 µM): 61.2%
viability, T/C (second compound 0.316 µM, first compound 0.01 µM): 39.4%
viability, T/C (second compound 0.316 µM, first compound 0.0316 µM): 49.8%
viability, T/C (second compound 0.316 µM, first compound 0.1 µM): 33.3%
viability, T/C (second compound 1 µM, first compound 0.000316 µM): 31.9%
viability, T/C (second compound 1 µM, first compound 0.001 µM): 60.9%
viability, T/C (second compound 1 µM, first compound 0.00316 µM): 43.1%
viability, T/C (second compound 1 µM, first compound 0.01 µM): 42.3%
viability, T/C (second compound 1 µM, first compound 0.0316 µM): 36.7%
viability, T/C (second compound 1 µM, first compound 0.1 µM): 20.8%

IC50 (compound alone, run of 04/25/2023): 58.3 nM [middle of 6 runs]
SMILES: COc1c(OCCCN2CCOCC2)ccc2c3n(c(=NC(=O)c4cnc(N)nc4)nc12)CCN3
viability, T/C (compound 0.01 µM): 83.5% [middle of 6 runs]
viability, T/C (compound 0.0316 µM): 60.5% [middle of 6 runs]
viability, T/C (compound 0.1 µM): 39.5% [middle of 6 runs]
viability, T/C (compound 0.316 µM): 21.5% [middle of 6 runs]
viability, T/C (compound 1 µM): 10.1% [middle of 6 runs]

IC50 (curve of compound): > 1000 nM
SMILES: CCN1CCN(Cc2ccc(Nc3ncc(F)c(-c4cc(F)c5nc(C)n(C(C)C)c5c4)n3)nc2)CC1
viability, T/C (compound 0.00316 µM): 81.3% and 60.8%
viability, T/C (compound 0.01 µM): 103% and 82.2%
viability, T/C (compound 0.0316 µM): 61.9% and 73.5%
viability, T/C (compound 0.1 µM): 68.2% and 59.2%
viability, T/C (compound 0.316 µM): 55.8% and 49.5%
viability, T/C (compound 1 µM): 58% and 51%
